We go through 2 compounds from patent publication US20070078124A1, “1-Aza-2-oxa-dibenzo(e,h)azulenes and their use for the treatment of central nervous system diseases and disorders” (PLIVA-ISTRAZIVACKI INSTITUT D.O.O., priority 2003, published 2007).

SMILES strings stand for the structures.

One test deals with T1, 5-HT2A receptor (Homo sapiens, UniProt P28223).
T1 construct: expressed in transfected cells; host or cells: CHO-K1 (or COS-7)
In words: radioligand ([3H]-ketanserin) competitive binding assay for 5-HT2A receptor. The settings on record: for IC50: human cortex or recombinant 5-HT2A receptor expressed in CHO-K1, read-out: binding affinity to 5-HT2A serotonin receptor expressed as IC50 value; for Ki: human cortex or recombinant 5-HT2A receptor expressed in CHO-K1, read-out: binding affinity to 5-HT2A serotonin receptor, Ki value. The protocol:
(§1) The effect of the compounds of the present invention on the neurochemical steady state was determined by in vitro investigations such as a radionuclide-marked radioligand binding assay for 5-HT2A (Bonhaus D. W. Br. J. Pharmacol. 1995, 115:622; Saucier C. J. Neurochem. 1997, 68:1998) and 5-HT2C receptors (Wolf W. A. J. Neurochem. 1997, 69:1449), in vitro binding assay for σ1 receptor (Thomson W. and Donn R. Arthritis Res. 2002, 4: 302-306) and by in vivo investigations in a tail suspension test (Vogel H. G. and Vogel W. H. Drug Discovery and Evaluation Pharmacological Assays, Springer 1997, 304), in amphethamine-induced hyperlocomotion in mice (Millan M. J. et al, 1998 J. Pharmacol. Exp. Ther. 287: 167-186), in a forced swim test in mice (Porsolt R. D. et al. Arch. Int. Pharmacodyn. 1977, 229:327-336), in meta-chlorophenyl piperazine (m-CPP) test on rats (Drug Dev. Res. 1989, 18:119-144), and in apomorphine, tryptamine, norepinephrine (ATN) test in rats (Arch. Int. Pharmacodyn. 1977, 227:238-253).
(§2) In Vitro Method for Determining Affinity for Binding to 5-HT2A and 5-HT2C Receptors
(§3) A small concentration of a radioligand having a great affinity for binding to a receptor was incubated with a tissue sample enriched with a certain receptor (1-5 mg of tissue) in a buffered medium (0.2-5 mL). Recombinant human HT2A and HT2C receptors were expressed in CHO-K1 or COS-7 cells and were also used for competitive binding. During incubation the radioligand bound to the receptor. When a binding balance was achieved, the receptors to which the radioligand was bound were separated from those to which said ligand was not bound, and the radioactivity of the receptor/radioligand complex was measured. The interaction of the tested compounds with receptors was tested in competitive binding experiments. Various concentrations of tested compounds were added to the incubation mixture containing a prepared tissue enriched with corresponding receptors and the radioligand. The radioligand binding was inhibited by the test compounds proportionally to the affinity of a certain compound for the receptor and to the concentration of the compound.
The radioligand used for the determination of binding to 5-HT2A receptor was [^3H]-ketanserin and the tissue used was human cortex or recombinant 5-HT2A receptor expressed in CHO-K1.

The next test has as its target T2, 5-HT2C receptor (Homo sapiens, UniProt P28335).
T2 construct: expressed in transfected cells; host or cells: CHO-K1 (or COS-7)
T2 sequence (P28335 33-458): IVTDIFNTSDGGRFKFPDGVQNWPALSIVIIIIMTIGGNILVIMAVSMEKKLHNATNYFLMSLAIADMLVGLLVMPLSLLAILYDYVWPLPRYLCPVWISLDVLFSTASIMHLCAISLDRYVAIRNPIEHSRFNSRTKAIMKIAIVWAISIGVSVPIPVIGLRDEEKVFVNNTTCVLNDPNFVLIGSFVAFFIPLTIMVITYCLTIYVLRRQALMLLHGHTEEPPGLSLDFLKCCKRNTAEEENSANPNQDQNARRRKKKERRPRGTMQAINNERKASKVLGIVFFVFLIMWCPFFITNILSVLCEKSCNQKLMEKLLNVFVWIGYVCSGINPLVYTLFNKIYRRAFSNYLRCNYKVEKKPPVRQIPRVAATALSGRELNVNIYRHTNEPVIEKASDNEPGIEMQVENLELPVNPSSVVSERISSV
Description: radioligand ([3H]mesulergine) competitive binding assay for 5-HT2C receptor. The settings on record: choroid plexus or recombinant 5-HT2C receptor expressed in CHO-K1 cells; for IC50: read-out: binding affinity to 5-HT2C serotonin receptor expressed as IC50 value; for Ki: read-out: binding affinity to 5-HT2C serotonin receptor, Ki value. On the procedure: as §1, §2, §3
The radioligand used for the determination of binding to 5-HT2C receptor was [^3H]mesulergine and the tissue used was choroid plexus or recombinant 5-HT2C receptor expressed in CHO-K1 cells.

T1 sequence (P28223 whole entry): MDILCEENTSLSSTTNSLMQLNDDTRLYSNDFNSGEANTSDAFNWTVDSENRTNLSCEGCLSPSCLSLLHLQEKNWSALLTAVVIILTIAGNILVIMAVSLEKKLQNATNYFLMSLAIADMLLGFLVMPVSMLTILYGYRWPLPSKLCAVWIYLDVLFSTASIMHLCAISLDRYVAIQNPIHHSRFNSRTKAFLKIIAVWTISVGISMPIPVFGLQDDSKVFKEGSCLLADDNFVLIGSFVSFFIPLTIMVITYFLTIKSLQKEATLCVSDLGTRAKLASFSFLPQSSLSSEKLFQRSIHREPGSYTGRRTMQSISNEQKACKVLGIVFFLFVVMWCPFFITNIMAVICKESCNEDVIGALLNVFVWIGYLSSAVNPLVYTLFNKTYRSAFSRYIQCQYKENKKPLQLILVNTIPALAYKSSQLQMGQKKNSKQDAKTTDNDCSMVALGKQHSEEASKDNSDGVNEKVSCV

For orientation: IC50 means the concentration needed to halve the response being measured. For orientation: Ki means the dissociation constant of the complex between target and ligand, obtained from inhibition or displacement. Consider `Cc1onc2c1-c1ccccc1Sc1ccccc1-2` [Compound 1, 3-Methyl-2-oxa-8-thia-1-aza-dibenzo[e,h]azulene], for which, at 5-HT2A receptor, the half-inhibitory concentration (IC50) is less than 200 nM and the Ki is less than 100 nM. Besides, at 5-HT2C receptor, the concentration for half-maximal inhibition (IC50) was less than 200 nM and the inhibition constant (Ki) was less than 100 nM.
Consider `CN(C)CCCOCc1onc2c1-c1ccccc1Sc1ccccc1-2` [Compound 7, Dimethyl-[3-(2-oxa-8-thia-1-aza-dibenzo[e,h]azulen-3-ylmethoxy)-propyl]-amine], for which, on 5-HT2A receptor, the concentration for half-maximal inhibition (IC50) was less than 200 nM and the inhibition constant Ki was less than 100 nM. Besides, at 5-HT2C receptor, the half-inhibitory concentration (IC50) is less than 200 nM and the inhibition constant (Ki) is less than 100 nM.
